Laboratory results as given in ChEMBL document CHEMBL1123421, “Interaction of monoamine oxidase B with analogues of 1-methyl-4-phenyl-1,2,3,6-tetrahydropyridine derived from prodine-type analgesics” (J Med Chem, 1986).

Key:
Homo sapiens [1] = organism: Homo sapiens; assay: Compound was tested for inhibition of monoclonal antibody complex (MAO B - MAO B 1C2) from human autopsy liver expressed as specific activity
Homo sapiens [2] = organism: Homo sapiens; assay: Compound was tested for inactivation of monoclonal antibody complex Monoamine oxidase B from human autopsy liver
Homo sapiens [3] = organism: Homo sapiens; assay: Compound was tested for inactivation of monoclonal antibody complex (MAO B - MAO B 1C2) from human autopsy liver

Compound	Specific activity (nM min-1 mg-1) (Homo sapiens [1])	k' (Homo sapiens [2])	k' (Homo sapiens [3])
C1=C(c2ccccc2)CCN(CCc2ccccc2)C1	0	0 min⁻¹	
CN1CC=C(c2ccccc2)CC1	85.2		0.0264 min⁻¹
CC1=C(c2ccccc2)CCN(C)C1	5.3		0 min⁻¹
CC1CN(C)CC=C1c1ccccc1 (stereo not drawn)	11.4		0 min⁻¹
